From US5789654A, “Transgenic animals deficient in endogenous β3 -adrenergic receptor and uses thereof” (Beth Israel Hospital Association, priority 1996, dated 1998)
Read-outs that look alike come from different tables or passages of the source.

Tests used:
[1] = tested on: β3 -AR; format: in vivo, mouse; details: for stimulated oxygen consumption: β3 -AR-deficient male mice vs control
Experimental: (§1) Mice that received norepinephrine were anesthetized with pentobarbital for the study.
(§2) Oxygen consumption was measured as described by Lowell et al. (supra) in twelve-week-old control, β3 -AR-deficient male mice, and β3 -AR-deficient knockout mice expressing the human β3-AR gene.

[2] = tested on: β3 -AR; format: biochemical, mouse; details: for reduction of stimulatory effect on adenylate cyclase activity: β3 -AR-deficient vs wild type
Experimental: (§3) To determine the functional consequences of β3 -AR deficiency on β-adrenergic signalling, the effects of β-adrenergic agonists on adenylate cyclase activity and lipolysis were assessed. For determination of adenylate cyclase activity (FIG. 5), plasma membranes were obtained from isolated white adipocytes or interscapular brown adipose tissue, and then were incubated in the presence of various agonists. […] To assess lipolysis (FIGS. 6A and 6B), white adipocytes were isolated from epididymal fat pads, and then incubated in the presence of various agonists. Rates of lipolysis were determined by quantitating the release of glycerol.

[3] = tested on: isolated white adipocytes; test: Lipolysis (glycerol release) in isolated white adipocytes; format: cell-based, mouse; details: +ADA
Experimental: as §3
For analysis of lipolysis, isolated white adipocytes (100 μl of a 10% isolate fat cell suspension) were incubated in a final volume of 500 μl, and glycerol release was measured over a fifteen minute period. […] Except where noted, the incubation medium consisted of a Krebs-Ringer-Hepes (30 mM) buffer (pH 7.4) supplemented with 2.5% bovine serum albumin (fraction V), 10 μM PIA (N^6 -[R-(-)-1-methyl-2-phenyl]adenosine), 1 unit/ml adenosine deaminase, and varying concentrations of agonists.

[4] = tested on: β3 -AR; format: in vivo, mouse; details: for FFA: serum, fifteen minutes after injection
Experimental: (§4) To determine the effect of β3 -AR deficiency on β-adrenergicsignaling in vivo, various adrenergic agonists were administered to control and knockout mice, and the effects on serum levels of FFAs, glycerol, and thermogenesis were assessed.
(§5) Whole blood was collected and analyzed for blood glucose levels (One Touch Blood Glucose Meter, Lifescan, Inc., Milpitas, Calif.). Serum was then isolated and assayed for FFAs (NEFA C kit, Wako Pure Chemical Industries, Ltd.), glycerol (GPO-Trinder Kit, procedure 337, Sigma), and insulin (rat insulin kit, Linco Research Inc., St. Louis, Mo.) according to the manufacturers' protocols.

[5] = tested on: β3 -AR; test: Acute effect on plasma insulin and blood glucose; format: in vivo, mouse; details: β3 -AR-deficient mice; 1 mg/kg intraperitoneal
Source text: (§6) FIGS. 8A-B are graphs showing the acute effect of saline or CL 316,243 on plasma insulin and blood glucose concentrations. […] Blood was obtained from the tail fifteen minutes after […]. The results are expressed as the mean ±S.E. (+/+=seven mice, -/-=four mice).
as §5

[6] = tested on: β3 -AR; test: Effect of a single dose on food intake; format: in vivo, mouse; details: β3 -AR-deficient mice; 1 mg/kg intraperitoneal; twenty-four hours
Experimental: (§7) FIG. 9 is a graph showing the effect of a single dose of CL 316,243 on food intake. […] The mice were housed individually during the test period, and results for each group are the mean of five animals (±S.E.). Food intake was determined during the twenty-four hours following CL 316,243 or saline treatment.
(§8) To acclimate the mice to injections and handling, saline was injected daily for three days preceding day zero of the study. The mice were housed individually during the study. Food was weighed before injection and twenty-four hours after, and the differences were assumed to represent grams of food eaten per day. The cages were inspected for food spillage, and none was noted.

[7] = target: T1, β3 -AR (Mus musculus, UniProt P25962); format: in vivo; set-up: endogenous in cells; host or cells: whole mice (control +/+ and beta-3-AR-deficient -/-, FVB background)
Experimental: as §4, §5

[8] = target: T1, β3 -AR; test: Effect of a single dose on food intake; format: in vivo; set-up: endogenous in cells; host or cells: whole mice (control +/+ and beta-3-AR-deficient -/-, FVB background); details: control mice; 1 mg/kg intraperitoneal; twenty-four hours
Experimental: as §7, §8

[9] = target: T1, β3 -AR; format: biochemical; set-up: plasma membranes of isolated white adipocytes (epididymal) or interscapular brown adipose tissue; -/- mice are null control; details: wild type mice; maximally effective / effective doses
Experimental: as §3

[10] = target: T1, β3 -AR; format: in vivo; set-up: plasma membranes of isolated white adipocytes (epididymal) or interscapular brown adipose tissue; -/- mice are null control; details: control mice; 1.0 mg/kg subcutaneously
Experimental: as §1, §2

[11] = target: T1, β3 -AR; test: Acute effect on plasma insulin and blood glucose; format: in vivo; set-up: plasma membranes of isolated white adipocytes (epididymal) or interscapular brown adipose tissue; -/- mice are null control; details: control mice; 1 mg/kg intraperitoneal, fifteen minutes
Source text: as §6, §5

[12] = target: T2, human β3 -AR (Homo sapiens, UniProt P13945); test: O2 consumption in knockout mice expressing the reconstituted human β3 -AR; format: in vivo, mouse; details: 10 mg/ml
T2 construct: reconstituted with an 80 kb β3 -AR human genomic clone; expressed in transfected cells; host or cells: transgenic beta-3-AR-deficient mice (human genomic P1 insert injected into zygotes; mRNA detected in brown adipose tissue only)
Experimental: The effects on oxygen consumption were then assessed according to standard methods (e.g., those described herein).
as §2

T1 sequence (P25962 whole entry): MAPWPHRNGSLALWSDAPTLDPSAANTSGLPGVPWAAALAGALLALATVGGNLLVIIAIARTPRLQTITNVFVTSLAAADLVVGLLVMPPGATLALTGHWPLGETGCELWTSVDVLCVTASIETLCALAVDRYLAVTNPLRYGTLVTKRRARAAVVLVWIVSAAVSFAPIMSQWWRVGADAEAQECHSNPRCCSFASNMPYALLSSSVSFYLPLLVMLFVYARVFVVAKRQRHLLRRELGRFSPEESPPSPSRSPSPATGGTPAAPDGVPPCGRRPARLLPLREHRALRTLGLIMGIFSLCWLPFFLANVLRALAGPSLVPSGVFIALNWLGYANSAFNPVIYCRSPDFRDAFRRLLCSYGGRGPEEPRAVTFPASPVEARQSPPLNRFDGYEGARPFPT
T2 sequence (P13945 whole entry): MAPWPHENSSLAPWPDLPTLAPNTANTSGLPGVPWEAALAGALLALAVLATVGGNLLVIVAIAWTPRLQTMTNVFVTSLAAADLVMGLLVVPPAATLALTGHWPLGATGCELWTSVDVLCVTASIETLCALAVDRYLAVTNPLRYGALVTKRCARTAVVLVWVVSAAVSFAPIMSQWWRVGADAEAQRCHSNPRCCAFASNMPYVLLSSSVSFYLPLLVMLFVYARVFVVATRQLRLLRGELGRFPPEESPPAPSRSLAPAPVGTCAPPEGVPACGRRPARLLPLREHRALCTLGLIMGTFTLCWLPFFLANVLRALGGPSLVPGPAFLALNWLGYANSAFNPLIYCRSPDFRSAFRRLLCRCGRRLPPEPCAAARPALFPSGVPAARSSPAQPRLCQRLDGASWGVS

In the case of `NC[C@H](O)c1ccc(O)c(O)c1` [norepinephrine], the stimulated oxygen consumption ([1]; 0.6 mg/kg subcutaneously, anesthetized with pentobarbital) is reported as “not significantly reduced”.
In the case of `C[C@H](Cc1ccc2c(c1)OC(C(=O)O)(C(=O)O)O2)NC[C@H](O)c1cccc(Cl)c1` [CL 316,243], the “adenylate cyclase activity in membranes” value ([2]; β3 -AR-deficient mice, maximally effective doses) is reported as “absent”, the lipolysis in adipocytes ([3]; wild type mice, +PIA) is reported as “stimulated” and the lipolysis in adipocytes ([3]; β3 -AR-deficient mice, +PIA) is reported as “absent”. For the same compound, the FFA ([4]; female -/-) was 630 ± 140 µM, the “increase in serum FFA levels” value ([4]; β3 -AR-deficient mice) was “totally absent” and the “increase in oxygen consumption” value ([1]; β3 -AR-deficient mice, 1.0 mg/kg subcutaneously) was “totally absent”. For the same compound, the “effect on blood glucose” value [5] was “completely without effect”, the “effect on plasma insulin levels” value [5] was “completely without effect” and the “effect on food intake” value [6] was “completely ineffective”. For the same compound, the “increase in serum FFA levels” value ([7]; control mice) was 3.2 fold, the FFA ([7]; serum, fifteen minutes after injection, female +/+) was 2,260 ± 350 μM and the “reduction in food intake” value [8] was “forty-five”. The “adenylate cyclase activity in membranes” value [9] was “stimulated”, the “increase in oxygen consumption” value [10] was 2 fold and the “increase in plasma insulin levels” value [11] was 140 fold. The “reduction in blood glucose” value [11] was “fifty-six”.
With “Adrenocorticotropic hormone (SYSMEHFRWGKPVGKKRRPVKVYPNGAEDESAEAFPLEF; Corticotropin; UniProt P01189 138-176, looked up) [ACTH, hormone that stimulates lipolysis via a seven-transmembrane receptor Gαs -adenylate cyclase-coupled mechanism]” the lipolysis in adipocytes ([3]; wild type mice, +PIA) was “increase lipolysis” and the lipolysis in adipocytes ([3]; β3 -AR-deficient mice, +PIA) was “increase lipolysis”.
For `CC(C)NCC(O)c1ccc(O)c(O)c1` (stereo not shown) [isoproterenol], the “reduction of stimulatory effect on adenylate cyclase activity” value ([2]; membranes derived from brown adipose tissue) was “seventy”, the “reduction of stimulatory effect on adenylate cyclase activity” value ([2]; membranes derived from isolated white adipocytes) was “eighty” and the stimulation of lipolysis ([3]; wild type adipocytes, maximally effective concentration, +PIA) was “about five”. For the same compound, the “reduction of stimulated lipolysis” value ([3]; β3 -AR-deficient adipocytes, -PIA) was “about thirty-three”, the lipolysis in adipocytes ([3]; β3 -AR-deficient mice, +PIA) was “absent” and the Glycerol ([4]; mouse, in vivo) was 239 ± 15 µM. The FFA ([4]; male -/-) was 1.510 ± 20 µM and the stimulated oxygen consumption ([1]; 0.3 mg/kg subcutaneously, awake) was “not significantly reduced”.
`C[C@H](Cc1ccccc1)Nc1ncnc2c1ncn2[C@@H]1O[C@H](CO)[C@@H](O)[C@H]1O` [PIA, N^6-[R-(-)-1-methyl-2-phenyl]adenosine] was tested, and the “inhibition of isoproterenol-stimulated lipolysis” value ([3]; control adipocytes, with vs without PIA (10 μM)) was “only minimally inhibited”.
With `C=C[C@@]1(C)CC(=O)[C@]2(O)[C@@]3(C)[C@@H](O)CCC(C)(C)[C@@H]3[C@H](O)[C@H](OC(C)=O)[C@@]2(C)O1` [forskolin] the lipolysis in adipocytes ([3]; wild type mice, +PIA) was “stimulate lipolysis” and the lipolysis in adipocytes ([3]; β3 -AR-deficient mice, +PIA) was “stimulate lipolysis”.
For `CC(C)(C)NCC(O)COc1cccc2[nH]c(=O)[nH]c12` (stereo not shown) [CGP-12177], the “increase in oxygen consumption” value [12] was “twenty”.
